Laboratory results reported in ChEMBL document CHEMBL1154953, “3-Aryl-4-(arylhydrazono)-1H-pyrazol-5-ones: Highly ligand efficient and potent inhibitors of GSK3beta” (Bioorg Med Chem Lett, 2010).

How the values were obtained:
[1] = target: Glycogen synthase kinase-3 beta (Homo sapiens, UniProt P49841)
Description: Inhibition of GSK3-beta assessed as NADH level after 10 mins by pyruvate kinase/lactate dehydrogenase coupled spectrophotometric assay

[2] = target: Rho-associated protein kinase 1 (Homo sapiens, UniProt Q13464); assay: Inhibition of ROCK1
[3] = target: Tyrosine-protein kinase JAK2 (Homo sapiens, UniProt O60674); assay: Inhibition of JAK2
Sequence of Tyrosine-protein kinase JAK2 (O60674 whole entry): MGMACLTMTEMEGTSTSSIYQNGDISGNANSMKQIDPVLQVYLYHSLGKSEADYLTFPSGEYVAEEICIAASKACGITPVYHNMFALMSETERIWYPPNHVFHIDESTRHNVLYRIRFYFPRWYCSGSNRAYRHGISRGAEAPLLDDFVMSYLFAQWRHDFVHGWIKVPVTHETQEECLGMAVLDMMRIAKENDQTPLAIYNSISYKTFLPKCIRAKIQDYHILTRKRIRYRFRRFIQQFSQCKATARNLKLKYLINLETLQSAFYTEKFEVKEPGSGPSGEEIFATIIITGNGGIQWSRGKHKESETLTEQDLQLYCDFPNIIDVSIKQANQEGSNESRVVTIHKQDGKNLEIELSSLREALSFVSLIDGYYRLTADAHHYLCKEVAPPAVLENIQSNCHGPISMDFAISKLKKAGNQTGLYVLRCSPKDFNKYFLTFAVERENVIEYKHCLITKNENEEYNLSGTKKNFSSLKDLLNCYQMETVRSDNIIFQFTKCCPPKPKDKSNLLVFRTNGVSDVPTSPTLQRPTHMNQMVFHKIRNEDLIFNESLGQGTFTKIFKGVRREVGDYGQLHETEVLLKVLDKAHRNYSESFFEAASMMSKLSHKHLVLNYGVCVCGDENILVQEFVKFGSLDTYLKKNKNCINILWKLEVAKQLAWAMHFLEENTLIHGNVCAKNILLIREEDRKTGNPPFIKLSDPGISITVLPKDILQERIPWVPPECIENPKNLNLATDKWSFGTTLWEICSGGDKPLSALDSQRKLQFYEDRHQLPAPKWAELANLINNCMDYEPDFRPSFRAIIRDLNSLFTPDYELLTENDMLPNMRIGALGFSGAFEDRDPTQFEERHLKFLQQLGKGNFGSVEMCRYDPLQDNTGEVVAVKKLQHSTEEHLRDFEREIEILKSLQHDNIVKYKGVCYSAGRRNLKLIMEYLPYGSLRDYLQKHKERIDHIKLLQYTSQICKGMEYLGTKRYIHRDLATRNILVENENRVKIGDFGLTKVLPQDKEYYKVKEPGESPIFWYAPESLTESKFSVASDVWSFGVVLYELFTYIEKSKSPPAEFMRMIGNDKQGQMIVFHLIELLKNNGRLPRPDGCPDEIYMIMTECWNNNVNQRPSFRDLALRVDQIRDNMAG

[4] = Inhibition of PKA
[5] = target: Cyclin-dependent kinase 2 (Homo sapiens, UniProt P24941)
[6] = target: Hepatocyte growth factor receptor (Homo sapiens, UniProt P08581)
[7] = target: Serine/threonine-protein kinase PLK1 (Homo sapiens, UniProt P53350); assay: Inhibition of PLK1
Sequence of Serine/threonine-protein kinase PLK1 (P53350 whole entry): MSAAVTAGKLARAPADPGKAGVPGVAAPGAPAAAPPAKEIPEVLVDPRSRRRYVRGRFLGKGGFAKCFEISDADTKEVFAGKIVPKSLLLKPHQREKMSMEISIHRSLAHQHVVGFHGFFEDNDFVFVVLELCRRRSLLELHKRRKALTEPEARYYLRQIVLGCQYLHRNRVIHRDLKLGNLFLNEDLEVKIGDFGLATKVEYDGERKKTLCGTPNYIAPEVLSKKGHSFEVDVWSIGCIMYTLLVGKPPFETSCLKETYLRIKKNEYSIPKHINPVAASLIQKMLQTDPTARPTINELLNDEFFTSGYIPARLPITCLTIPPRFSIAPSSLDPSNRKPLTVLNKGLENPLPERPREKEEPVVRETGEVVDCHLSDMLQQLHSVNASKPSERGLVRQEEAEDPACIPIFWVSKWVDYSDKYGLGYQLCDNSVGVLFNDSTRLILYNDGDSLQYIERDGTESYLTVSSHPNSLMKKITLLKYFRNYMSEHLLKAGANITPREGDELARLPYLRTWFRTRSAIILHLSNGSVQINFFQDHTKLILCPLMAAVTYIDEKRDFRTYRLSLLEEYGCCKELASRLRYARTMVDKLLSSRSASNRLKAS

[8] = target: Vascular endothelial growth factor receptor 2 (Homo sapiens, UniProt P35968); assay: Inhibition of KDR
Sequence of Vascular endothelial growth factor receptor 2 (P35968 whole entry): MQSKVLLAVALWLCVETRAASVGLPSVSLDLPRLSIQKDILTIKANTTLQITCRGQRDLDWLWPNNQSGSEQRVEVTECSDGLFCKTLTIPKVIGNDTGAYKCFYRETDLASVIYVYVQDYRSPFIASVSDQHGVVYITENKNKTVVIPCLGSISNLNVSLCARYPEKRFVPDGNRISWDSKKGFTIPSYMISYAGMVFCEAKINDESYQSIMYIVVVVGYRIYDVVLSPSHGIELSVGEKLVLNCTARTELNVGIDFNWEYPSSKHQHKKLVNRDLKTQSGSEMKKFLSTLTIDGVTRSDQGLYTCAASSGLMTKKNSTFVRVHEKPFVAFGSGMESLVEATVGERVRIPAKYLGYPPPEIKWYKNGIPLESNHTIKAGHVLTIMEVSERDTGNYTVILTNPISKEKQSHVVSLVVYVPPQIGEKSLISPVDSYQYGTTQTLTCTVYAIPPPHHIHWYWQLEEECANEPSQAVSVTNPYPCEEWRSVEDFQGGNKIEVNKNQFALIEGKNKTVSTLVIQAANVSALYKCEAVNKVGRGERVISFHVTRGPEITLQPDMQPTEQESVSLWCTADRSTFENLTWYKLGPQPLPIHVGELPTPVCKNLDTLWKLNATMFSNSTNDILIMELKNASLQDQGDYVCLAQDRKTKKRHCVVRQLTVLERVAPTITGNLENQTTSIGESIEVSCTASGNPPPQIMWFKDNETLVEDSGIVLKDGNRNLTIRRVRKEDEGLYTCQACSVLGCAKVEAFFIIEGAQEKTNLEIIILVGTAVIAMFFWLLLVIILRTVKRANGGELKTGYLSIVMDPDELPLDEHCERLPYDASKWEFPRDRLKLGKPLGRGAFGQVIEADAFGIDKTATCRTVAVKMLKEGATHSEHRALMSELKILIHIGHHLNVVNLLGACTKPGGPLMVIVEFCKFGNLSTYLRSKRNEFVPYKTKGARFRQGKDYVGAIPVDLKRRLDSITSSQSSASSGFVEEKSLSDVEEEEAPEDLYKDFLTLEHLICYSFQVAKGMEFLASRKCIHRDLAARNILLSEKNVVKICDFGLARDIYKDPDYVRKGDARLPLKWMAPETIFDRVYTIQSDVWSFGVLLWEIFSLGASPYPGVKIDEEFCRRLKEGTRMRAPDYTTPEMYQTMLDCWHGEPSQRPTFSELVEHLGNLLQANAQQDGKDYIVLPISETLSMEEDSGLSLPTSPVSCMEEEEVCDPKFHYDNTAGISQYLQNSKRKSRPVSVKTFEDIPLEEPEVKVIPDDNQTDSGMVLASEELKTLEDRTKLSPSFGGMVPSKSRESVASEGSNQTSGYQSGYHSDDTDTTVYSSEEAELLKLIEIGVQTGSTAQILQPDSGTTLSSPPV

[9] = target: Proto-oncogene tyrosine-protein kinase Src (Homo sapiens, UniProt P12931); assay: Inhibition of SRC
Sequence of Proto-oncogene tyrosine-protein kinase Src (P12931 2-536 limits assumed): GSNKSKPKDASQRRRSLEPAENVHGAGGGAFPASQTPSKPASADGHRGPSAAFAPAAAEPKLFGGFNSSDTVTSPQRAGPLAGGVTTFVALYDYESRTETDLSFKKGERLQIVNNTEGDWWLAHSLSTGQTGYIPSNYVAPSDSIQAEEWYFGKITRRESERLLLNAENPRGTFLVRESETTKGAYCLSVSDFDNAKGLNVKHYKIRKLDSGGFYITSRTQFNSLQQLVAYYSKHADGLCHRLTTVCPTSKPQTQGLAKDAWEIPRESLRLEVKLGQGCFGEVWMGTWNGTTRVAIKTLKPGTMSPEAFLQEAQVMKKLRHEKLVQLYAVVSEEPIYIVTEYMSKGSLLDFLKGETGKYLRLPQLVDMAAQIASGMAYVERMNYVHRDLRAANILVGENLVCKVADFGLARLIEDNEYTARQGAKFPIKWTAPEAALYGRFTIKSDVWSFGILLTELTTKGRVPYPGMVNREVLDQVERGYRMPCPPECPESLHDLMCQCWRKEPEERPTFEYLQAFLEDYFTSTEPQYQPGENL

[10] = target: Mitogen-activated protein kinase 10 (Homo sapiens, UniProt P53779); assay: Inhibition of JNK3
Sequence of Mitogen-activated protein kinase 10 (P53779 whole entry): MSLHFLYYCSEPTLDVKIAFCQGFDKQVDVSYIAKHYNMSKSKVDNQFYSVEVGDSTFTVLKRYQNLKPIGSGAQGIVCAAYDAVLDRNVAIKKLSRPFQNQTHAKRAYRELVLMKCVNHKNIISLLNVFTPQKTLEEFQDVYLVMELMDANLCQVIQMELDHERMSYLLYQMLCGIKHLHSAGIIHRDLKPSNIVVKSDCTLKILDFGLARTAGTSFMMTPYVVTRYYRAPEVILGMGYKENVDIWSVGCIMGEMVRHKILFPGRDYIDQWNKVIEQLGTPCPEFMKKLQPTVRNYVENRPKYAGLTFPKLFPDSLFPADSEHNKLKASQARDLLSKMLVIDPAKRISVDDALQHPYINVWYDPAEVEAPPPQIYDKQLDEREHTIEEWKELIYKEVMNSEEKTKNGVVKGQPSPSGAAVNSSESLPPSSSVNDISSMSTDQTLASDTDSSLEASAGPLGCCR

[11] = target: T1, Receptor-type tyrosine-protein kinase FLT3 (Homo sapiens, UniProt P36888); assay: Inhibition of FLT3
T1 sequence (P36888 whole entry): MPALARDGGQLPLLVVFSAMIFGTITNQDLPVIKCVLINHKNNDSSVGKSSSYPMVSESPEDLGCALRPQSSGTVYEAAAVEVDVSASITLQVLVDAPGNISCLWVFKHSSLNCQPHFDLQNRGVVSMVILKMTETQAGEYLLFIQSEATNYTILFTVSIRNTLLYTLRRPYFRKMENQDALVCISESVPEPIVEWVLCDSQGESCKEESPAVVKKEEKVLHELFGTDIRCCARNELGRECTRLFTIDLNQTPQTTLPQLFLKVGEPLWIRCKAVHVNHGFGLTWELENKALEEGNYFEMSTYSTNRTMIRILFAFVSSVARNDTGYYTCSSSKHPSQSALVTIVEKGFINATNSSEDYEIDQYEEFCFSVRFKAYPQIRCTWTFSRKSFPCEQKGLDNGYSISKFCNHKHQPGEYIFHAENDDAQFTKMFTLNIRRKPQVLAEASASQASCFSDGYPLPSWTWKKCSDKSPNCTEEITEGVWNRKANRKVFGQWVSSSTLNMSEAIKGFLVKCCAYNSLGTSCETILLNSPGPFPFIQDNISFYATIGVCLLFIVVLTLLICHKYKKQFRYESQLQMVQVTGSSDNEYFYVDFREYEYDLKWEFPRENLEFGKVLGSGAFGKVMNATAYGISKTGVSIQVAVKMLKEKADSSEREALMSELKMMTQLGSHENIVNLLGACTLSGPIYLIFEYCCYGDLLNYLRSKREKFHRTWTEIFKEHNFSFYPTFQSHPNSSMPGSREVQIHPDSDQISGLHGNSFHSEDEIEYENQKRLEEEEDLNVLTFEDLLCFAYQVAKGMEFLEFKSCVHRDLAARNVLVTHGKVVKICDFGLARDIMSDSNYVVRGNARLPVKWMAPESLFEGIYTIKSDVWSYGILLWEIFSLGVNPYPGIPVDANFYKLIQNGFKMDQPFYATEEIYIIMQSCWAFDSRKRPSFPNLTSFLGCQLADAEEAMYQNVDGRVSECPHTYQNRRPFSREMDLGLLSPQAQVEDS

[12] = target: T2, Interleukin-1 receptor-associated kinase 4 (Homo sapiens, UniProt Q9NWZ3); assay: Inhibition of IRAK4
T2 sequence (Q9NWZ3 whole entry): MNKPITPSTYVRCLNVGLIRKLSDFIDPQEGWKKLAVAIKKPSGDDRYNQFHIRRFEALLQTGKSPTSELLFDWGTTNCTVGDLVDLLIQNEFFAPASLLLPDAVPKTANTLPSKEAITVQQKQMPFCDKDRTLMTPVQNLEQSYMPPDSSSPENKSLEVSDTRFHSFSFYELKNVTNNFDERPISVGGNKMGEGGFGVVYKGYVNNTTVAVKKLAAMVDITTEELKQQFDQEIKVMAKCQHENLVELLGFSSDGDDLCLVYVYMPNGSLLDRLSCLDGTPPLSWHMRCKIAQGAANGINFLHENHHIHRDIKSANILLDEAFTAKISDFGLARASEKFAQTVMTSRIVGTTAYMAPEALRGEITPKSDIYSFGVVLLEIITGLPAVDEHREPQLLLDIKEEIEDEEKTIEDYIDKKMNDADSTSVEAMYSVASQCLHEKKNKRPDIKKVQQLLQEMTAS

[13] = target: Phosphatidylinositol 4,5-bisphosphate 3-kinase catalytic subunit gamma isoform (Homo sapiens, UniProt P48736); assay: Inhibition of PI3Kgamma
[14] = target: Tyrosine-protein kinase SYK (Homo sapiens, UniProt P43405)

Sequence of Glycogen synthase kinase-3 beta (P49841 whole entry): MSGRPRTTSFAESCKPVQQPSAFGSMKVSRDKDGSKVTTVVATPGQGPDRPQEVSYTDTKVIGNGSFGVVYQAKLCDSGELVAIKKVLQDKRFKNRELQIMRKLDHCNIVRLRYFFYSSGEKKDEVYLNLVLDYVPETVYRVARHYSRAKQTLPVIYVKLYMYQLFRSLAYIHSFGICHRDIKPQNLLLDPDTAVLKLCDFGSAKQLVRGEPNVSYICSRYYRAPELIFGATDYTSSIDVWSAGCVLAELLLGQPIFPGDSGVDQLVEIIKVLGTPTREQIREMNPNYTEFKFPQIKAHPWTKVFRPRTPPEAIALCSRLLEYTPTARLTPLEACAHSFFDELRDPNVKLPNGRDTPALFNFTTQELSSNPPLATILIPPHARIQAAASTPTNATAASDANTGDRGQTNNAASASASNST

SMILES	Ki [1]	further results
COc1ccncc1C1=NNC(=O)/C1=N\Nc1ccncc1	16 nM	
CC1=NNC(=O)/C1=N\Nc1ccccc1Cl	460 nM	
COc1ccc(N/N=C2\C(=O)NN=C2c2cnccc2OC)cc1	2 nM	
CC(C)C1=NNC(=O)/C1=N\Nc1ccccc1Cl	> 3700 nM	
O=C1NN=C(c2ccccn2)/C1=N/Nc1ccccc1Cl	650 nM	
O=C1NN=C(c2cccnc2)/C1=N/Nc1ccccc1Cl	200 nM	
O=C1NN=C(c2ccncc2)/C1=N/Nc1ccccc1Cl	250 nM	
O=C1NN=C/C1=N/Nc1ccccc1Cl	1490 nM	
CCN(CC)c1ccc(N/N=C2\C(=O)NN=C2c2ccc(OC)cc2)cc1	16 nM	
COc1ccncc1C1=NNC(=O)/C1=N\Nc1ccc(C#N)cc1	8.3 nM	
COc1ccncc1C1=NNC(=O)/C1=N\Nc1cccnc1	23 nM	
COc1ccc(C2=NNC(=O)/C2=N\Nc2ccccc2Cl)cc1OC	44 nM	
COc1ccncc1C1=NNC(=O)/C1=N\Nc1ccc(C(=O)O)cc1	7.7 nM	
COc1ccncc1C1=NNC(=O)/C1=N\Nc1ccc(N2CCOCC2)cc1	50 nM	
COc1ccc(N/N=C2\C(=O)NN=C2c2cccnc2)cc1	20 nM	
COc1ccc(N/N=C2\C(=O)NN=C2c2ccc(OC)c(OC)c2)cc1	< 2 nM	
COc1ccc(N/N=C2\C(=O)NN=C2c2cc(OC)c(OC)c(OC)c2)cc1	9 nM	
COc1ccc(C2=NNC(=O)/C2=N\Nc2ccc(N(C)C)cc2)cc1OC	87 nM	
CCN(CC)c1ccc(N/N=C2\C(=O)NN=C2c2ccc(OC)c(OC)c2)cc1	2 nM	
COc1ccc(C2=NNC(=O)/C2=N\Nc2ccc(N3CCOCC3)cc2)cc1OC	3 nM	
COc1ccncc1C1=NNC(=O)/C1=N\Nc1ccccc1	4.5 nM	Ki [2]: > 4000 nM; Ki [13]: 540 nM; Ki [3]: 3500 nM; Ki [4]: > 4000 nM; Ki [7]: > 4000 nM; Ki [14]: 1800 nM; Ki [8]: 1000 nM; Ki [9]: > 4000 nM; Ki [10]: 2500 nM; Ki [11]: 290 nM; Ki [12]: 1100 nM
COc1ccc(C2=NNC(=O)/C2=N\Nc2ccc(C#N)cc2)cc1OC	< 2 nM	
COc1ccc(C2=NNC(=O)/C2=N\Nc2ccncc2)cc1OC	< 3.5 nM	
COc1ccc(C2=NNC(=O)/C2=N/Nc2ccc(Cl)cc2)cc1OC	< 2 nM	
COc1ccncc1C1=NNC(=O)/C1=N\Nc1ccc(Cl)cc1	3 nM	
COc1ccccc1N/N=C1\C(=O)NN=C1c1cnccc1OC	270 nM	
COc1ccc(C2=NNC(=O)/C2=N\Nc2ccc(N3CCOCC3)cc2)cc1	8 nM	

Second part, led by results:

Ki [1]	SMILES	further results
9 nM	COc1cccc(C2=NNC(=O)/C2=N\Nc2ccc(Cl)cc2)c1	
1.9 nM	COc1ccc(C2=NNC(=O)/C2=N\Nc2cccc(Cl)c2)cc1	
2 nM	COc1ccc(C2=NNC(=O)/C2=N\Nc2cccnc2)cc1	Ki [2]: > 4000 nM; Ki [3]: > 4000 nM; Ki [4]: > 4000 nM; Ki [5]: 62 nM; Ki [6]: > 4000 nM; Ki [7]: > 4000 nM; Ki [8]: 3400 nM; Ki [9]: > 4000 nM; Ki [10]: > 4000 nM; Ki [11]: 130 nM; Ki [12]: 1500 nM
3.7 nM	COc1cccc(N/N=C2\C(=O)NN=C2c2cnccc2OC)c1	
39 nM	COc1cccc(C2=NNC(=O)/C2=N\Nc2ccccc2)c1	
8 nM	COc1cccc(C2=NNC(=O)/C2=N\Nc2cccc(Cl)c2)c1	
720 nM	O=C1NN=C(c2ccccc2)/C1=N/Nc1ccccc1Cl	
9 nM	COc1cccc(C2=NNC(=O)/C2=N\Nc2ccc(N(C)C)cc2)c1	
59 nM	COc1cccc(C2=NNC(=O)/C2=N\Nc2ccc(N3CCOCC3)cc2)c1	
2 nM	COc1ccc(C2=NNC(=O)/C2=N\Nc2ccc(Cl)cc2)cc1	
0.8 nM	COc1ccc(C2=NNC(=O)/C2=N\Nc2cccc(OC)c2)cc1	Ki [2]: > 4000 nM; Ki [3]: > 1600 nM; Ki [4]: > 4000 nM; Ki [5]: 95 nM; Ki [6]: > 4000 nM; Ki [7]: > 4000 nM; Ki [8]: 1800 nM; Ki [9]: > 4000 nM; Ki [10]: > 4000 nM; Ki [11]: 66 nM
850 nM	COc1cccc(C2=NNC(=O)/C2=N\Nc2ccccc2Cl)c1	
< 2 nM	COc1ccc(C2=NNC(=O)/C2=N\Nc2ccc(C#N)cc2)cc1	
14 nM	COc1ccc(C2=NNC(=O)/C2=N\Nc2ccncc2)cc1	
110 nM	COc1ccc(C2=NNC(=O)/C2=N\Nc2ccc(N(C)C)cc2)cc1	
> 4000 nM	COc1ccccc1N/N=C1\C(=O)NN=C1c1ccccc1	
35 nM	COc1cccc(N/N=C2\C(=O)NN=C2c2ccccc2)c1	

Ki [1]	SMILES	further results
99 nM	O=C1NN=C(c2ccccc2)/C1=N/Nc1ccccc1	
120 nM	O=C1NN=C(c2ccccc2)/C1=N/Nc1cccc(Cl)c1	
23 nM	O=C1NN=C(c2ccccc2)/C1=N/Nc1ccc(Cl)cc1	
640 nM	COc1ccc(N/N=C2\C(=O)NN=C2c2ccccn2)cc1	
30 nM	COc1ccc(N/N=C2\C(=O)NN=C2c2ccncc2)cc1	
18 nM	COc1ccc(N/N=C2\C(=O)NN=C2c2cccc(OC)c2)cc1	
2 nM	COc1ccc(N/N=C2\C(=O)NN=C2c2ccc(OC)cc2)cc1	
5 nM	COc1cccc(N/N=C2\C(=O)NN=C2c2cccc(OC)c2)c1	
4 nM	COc1cccc(C2=NNC(=O)/C2=N\Nc2ccc(C#N)cc2)c1	
8 nM	COc1cccc(C2=NNC(=O)/C2=N\Nc2ccccn2)c1	
30 nM	COc1cccc(C2=NNC(=O)/C2=N\Nc2cccnc2)c1	
23 nM	COc1cccc(C2=NNC(=O)/C2=N\Nc2ccncc2)c1	
6.5 nM	COc1cccc(C2=NNC(=O)/C2=N\Nc2ccc(C(=O)O)cc2)c1	
< 3.5 nM	COc1ccc(C2=NNC(=O)/C2=N\Nc2cccnc2)cc1OC	
0.4 nM	COc1ccc(C2=NNC(=O)/C2=N\Nc2cccc(Cl)c2)cc1OC	
0.4 nM	COc1cccc(N/N=C2\C(=O)NN=C2c2ccc(OC)c(OC)c2)c1	
< 3.5 nM	COc1ccc(C2=NNC(=O)/C2=N\Nc2ccccc2)cc1OC	
